Data on 17 compounds can be found in patent publication US20160176867A1, “MODIFIED BET-PROTEIN-INHIBITING DIHYDROQUINOXALINONES AND DIHYDROPYRIDOPYRAZINONES” (BAYER PHARMA AKTIENGESELLSCHAFT, priority 2013, published 2016).

Test [1] has as its target T1, BRD4 bromo domain 1 [BRD4(1)] (Homo sapiens, UniProt O60885).
T1 construct: N-terminally His6-tagged BRD4(1) (amino acids 67-152); made in house; host or cells: E. coli
Nature of the test: BRD4/acetylated peptide H4 binding assay (TR-FRET), BRD4 bromo domain 1. As to conditions: inhibition of BRD4(1)/Ac-H4 peptide interaction. In short, it runs like this: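 TR-FRET (665/620 nm ratio) measuring displacement of biotinylated tetra-acetylated H4 peptide from His6-BRD4(1) (aa 67-152, E. coli; typically 10 nM) at pH 7.5. Compound (11 concentrations, 0.1 nM–20 μM, duplicates) was preincubated 10 min at 22°C, then 1 h at 22°C and ≥3 h at 4°C; IC50 from 4-parameter fit normalized to DMSO and no-BRD4 controls.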
A general note: In TR-FRET formats the signal depends on donor and acceptor labels being close together.

The subject of test [2] is B16F10 cells. Briefly: Cell proliferation assay (alamarBlue), B16F10. As to conditions: Mus musculus, B16-F10; B16F10 (melanoma, BRAF wild-type), 96 hours. In kind it is cell-based. On the procedure: (§1) In accordance with the invention, the ability of the substances to inhibit cell proliferation was determined. Cell viability was determined by means of the alamarBlue® reagent (Invitrogen) in a Victor X3 Multilabel Reader (Perkin Elmer). The excitation wavelength was 530 nm and the emission wavelength […].
The B16F10 cells (ATCC, CRL-6475) were sown at a concentration of 300-500 cells/well in 100 μl of growth medium (DMEM with phenol red, 10% FCS) on 96-well microtitre plates.
(§2) After overnight incubation at 37° C., the fluorescence values were determined (CI values). Then the plates were treated with various substance dilutions (1E-5 M, 3E-6 M, 1E-6 M, 3E-7 M, 1E-7 M, 3E-8 M, 1E-8 M) and incubated at 37° C. over 96 hours (MOLM-13, B16F10, CHL-1 cells) or 120 hours (MOLP-8 cells). Subsequently, the fluorescence values were determined (CO values). For the data analysis, the CI values were subtracted from the CO values and the results were compared between cells which had been treated with various dilutions of the substance or only with buffer solution. The IC50 values (substance concentration needed for 50% inhibition of cell proliferation) were calculated therefrom.
A general note: Resazurin is reduced to fluorescent resorufin, in cell work by metabolically active cells.

The test system of test [3] is MOLP-8 cells. Briefly: Cell proliferation assay (alamarBlue), MOLP-8. It counts as cell-based. As to conditions: Homo sapiens; MOLP-8 (multiple myeloma), 120 hours. The procedure:
as §1
The MOLP-8 cells (DSMZ, ACC 569) were sown at a concentration of 4000 cells/well in 100 μl of growth medium (RPMI1640, 20% FCS) on 96-well microtitre plates.
as §2

The subject of test [4] is MOLM-13 cells. Briefly: Cell proliferation assay (alamarBlue), MOLM-13. In kind it is cell-based. As to conditions: Homo sapiens; MOLM-13 (acute myeloid leukaemia), 96 hours. The procedure:
as §1
The MOLM-13 cells (DSMZ, ACC 554) were sown at a concentration of 4000 cells/well in 100 μl of growth medium (RPMI1640, 10% FCS) on 96-well microtitre plates.
as §2

SMILES strings stand for the structures.

Take `CC1C(=O)N(C)c2ccc(Nc3cccc(C(=O)NC4CCN(C)CC4)c3)nc2N1c1ccccc1` (racemic) [Example 104, 3-[(1,3-dimethyl-2-oxo-4-phenyl-1,2,3.4-tetrahydropyrido[2,3-b]pyrazin-6-yl)amino]-A-(1-methylpiperidin-4-yl)benzamide]: the half-inhibitory concentration (IC50) in test [1] amounted to 956 nM; in test [2], 2430 nM; in test [3], 826 nM; in test [4], 1440 nM.

In the case of `C[C@@H]1C(=O)N(C)c2ccc(Nc3cccc(C(=O)N4CCN(C)CC4)c3)nc2N1C1CCCC1` [Example 1, (3R)-4-Cyclopentyl-1,3-dimethyl-6-({3-[(4-methylpiperazin-1-yl)carbonyl]phenyl}amino)-3,4-dihydropyrido[2,3-b]pyrazin-2(1H)-one], the IC50 in test [1] turned out to be 67 nM; in test [2], 661 nM; in test [3] it was 337 nM; in test [4], 613 nM.

With `C[C@@H]1C(=O)N(C)c2ccc(Nc3cccc(C(=O)NC4CCN(C)CC4)c3)nc2N1C1CCCC1` [Example 2, 3-{[(3R)-4-Cyclopentyl-1,3-dimethyl-2-oxo-1,2,3,4-tetrahydropyrido[2,3-b]pyrazin-6-yl]amino}-N-(1-methylpiperidin-4-yl)benzamide], the IC50 in test [1] turned out to be 94 nM; in test [2], 442 nM; in test [3], 114 nM; in test [4], 352 nM.

Turning to `C[C@@H]1C(=O)N(C)c2ccc(Nc3cccc(C(=O)NC4CN(C)C4)c3)nc2N1C1CCCC1` [Example 3, 3-{[(3R)-4-Cyclopentyl-1,3-dimethyl-2-oxo-1,2,3,4-tetrahydropyrido[2,3-b]pyrazin-6-yl]amino}-N-(1-methylazetidin-3-yl)benzamide], the IC50 in test [1] is 91 nM; in test [2], 695 nM; in test [3], 187 nM; in test [4], 296 nM.

In the case of `C[C@@H]1C(=O)N(C)c2ccc(Nc3cccc(C(=O)NCCN(C)C)c3)nc2N1C1CCCC1` [Example 4, 3-{[(3R)-4-Cyclopentyl-1,3-dimethyl-2-oxo-1,2,3,4-tetrahydropyrido[2,3-b]pyrazin-6-yl]amino}-N-[2-(dimethylamino)ethyl]benzamide], the IC50 in test [1] is 144 nM; in test [2], 778 nM; in test [3] it was 249 nM; in test [4] it was 535 nM.

As for `C[C@@H]1C(=O)N(C)c2ccc(Nc3cccc(C(=O)N[C@H]4CC[C@H](N5CCN(CC6CC6)CC5)CC4)c3)nc2N1C1CCCC1` [Example 5, 3-{[(3R)-4-Cyclopentyl-1,3-dimethyl-2-oxo-1,2,3,4-tetrahydropyrido[2,3-b]pyrazin-6-yl]amino}-N-{trans-4-[4-(cyclopropylmethyl)piperazin-1-yl]cyclohexyl}benzamide], the IC50 in test [1] was 99 nM; in test [2], 506 nM; in test [3], 136 nM; in test [4], 326 nM.

In the case of `C[C@@H]1C(=O)N(C)c2ccc(Nc3cccc(S(=O)(=O)N(C)C)c3)nc2N1C1CCOCC1` [Example 6, 3-{[(3R)-1,3-Dimethyl-2-oxo-4-(tetrahydro-2H-pyran-4-yl)-1,2,3,4-tetrahydropyrido[2,3-b]pyrazin-6-yl]amino}-N,N-dimethylbenzenesulphonamide], the IC50 in test [1] was found to be 27 nM; in test [2], 71 nM; in test [3] it was 37 nM; in test [4], 53 nM.

For `C[C@@H]1C(=O)N(C)c2ccc(Nc3cccc(S(=O)(=O)N(C)C)c3)cc2N1C1CCOCC1` [Example 7, 3-{[(3R)-1,3-Dimethyl-2-oxo-4-(tetrahydro-2H-pyran-4-yl)-1,2,3,4-tetrahydroguinoxalin-6-yl]amino}-N,N-dimethylbenzenesulphonamide], the IC50 in test [1] worked out at 46 nM; in test [2], 178 nM; in test [4], 149 nM.

In the case of `C[C@@H]1C(=O)N(C)c2ccc(Nc3cccc(S(=O)(=O)N4CCOCC4)c3)cc2N1C1CCOCC1` [Example 8, (3R)-1,3-Dimethyl-6-{[3-(morpholin-4-ylsulphonyl)phenyl]amino}-4-(tetrahydro-2H-pyran-4-yl)-3,4-dihydroquinoxalin-2(1H)-one], the half-inhibitory concentration (IC50) in test [1] amounted to 79 nM; in test [2], 258 nM; in test [4], 271 nM.

Consider `C[C@@H]1C(=O)N(C)c2ccc(Nc3cccc(S(=O)(=O)N4CCOCC4)c3)nc2N1C1CCOCC1` [Example 9, (3R)-1,3-Dimethyl-6-{[3-(morpholin-4-ylsulphonyl)phenyl]amino}-4-(tetrahydro-2H-pyran-4-yl)-3,4-dihydropyrido[2,3-b]pyrazin-2(1H)-one], for which the concentration for half-maximal inhibition (IC50) in test [1] is 28 nM; in test [2], 78 nM; in test [3], 40 nM; in test [4] it was 66 nM.

Turning to `COc1ccc(CN2c3cc(Nc4cccc(S(=O)(=O)N(C)C)c4)ccc3N(C)C(=O)[C@H]2C)cc1` [Example 10, 3-{[(3R)-4-(4-Methoxybenzyl)-1,3-dimethyl-2-oxo-1,2,3,4-tetrahydroquinoxalin-6-yl]amino}-N,N-dimethylbenzenesulphonamide], the IC50 in test [1] turned out to be 159 nM; in test [2] it was 122 nM; in test [3], 82 nM; in test [4] it was 233 nM.

With `C[C@@H]1C(=O)N(C)c2ccc(Nc3cccc(S(=O)(=O)N4CCN(C)CC4)c3)nc2N1C1CCOCC1` [Example 12, (3R)-1,3-Dimethyl-6-({3-[(4-methylpiperazin-1-yl)sulphonyl]phenyl}amino)-4-(tetrahydro-2H-pyran-4-yl)-3,4-dihydropyrido[2,3-b]pyrazin-2(1H)-one], the IC50 is 56 nM in test [1], 544 nM in test [2], 126 nM in test [3] and 195 nM in test [4].

With `C[C@@H]1C(=O)N(C)c2ccc(Nc3cccc(C(=O)NC4CCN(C)CC4)c3)nc2N1C1CCOCC1` [Example 13, 3-{[(3R)-1,3-Dimethyl-2-oxo-4-(tetrahydro-2H-pyran-4-yl)-1,2,3,4-tetrahydropyrido[2,3-b]pyrazin-6-yl]amino}-N-(1-methylpiperidin-4-yl)benzamide], the IC50 in test [1] was determined as 322 nM; in test [2] it was 840 nM; in test [3] it was 306 nM; in test [4], 697 nM.

Turning to `C[C@@H]1C(=O)N(C)c2ccc(Nc3cccc(C(=O)N[C@H]4CC[C@H](N5CCN(CC6CC6)CC5)CC4)c3)nc2N1C1CCOCC1` [Example 14, N-{trans-4-[4-(Cyclopropylmethyl)piperazin-1-yl]cyclohexyl}-3-{[(3R)-1,3-dimethyl-2-oxo-4-(tetrahydro-2H-pyran-4-yl)-1,2,3,4-tetrahydropyrido[2,3-b]pyrazin-6-yl]amino}benzamide], the IC50 came to 144 nM in test [1], 809 nM in test [2], 240 nM in test [3] and 343 nM in test [4].

For `C[C@@H]1C(=O)N(C)c2ccc(Nc3cccc(C(=O)N4CCN(C)CC4)c3)nc2N1C1CCOCC1` [Example 15, (3R)-1,3-Dimethyl-6-({3-[(4-methylpiperazin-1-yl)carbonyl]phenyl}amino)-4-(tetrahydro-2H-pyran-4-yl)-3,4-dihydropyrido[2,3-b]pyrazin-2(1H)-one], the IC50 in test [1] stood at 108 nM; in test [2], 1080 nM; in test [3] it was 313 nM; in test [4], 511 nM.

As for `C[C@@H]1C(=O)N(C)c2ccc(Nc3cccc(S(=O)(=O)NC4CCN(C)CC4)c3)nc2N1C1CCOCC1` [Example 20, 3-{[(3R)-1,3-Dimethyl-2-oxo-4-(tetrahydro-2H-pyran-4-yl)-1,2,3,4-tetrahydropyrido[2,3-b]pyrazin-6-yl]amino}-N-(1-methylpiperidin-4-yl)benzenesulphonamide], the IC50 in test [1] was determined as 58 nM; in test [2], 556 nM; in test [3], 190 nM; in test [4], 175 nM.

As for `C[C@@H]1C(=O)N(C)c2ccc(Nc3cccc(S(=O)(=O)NCCN(C)C)c3)nc2N1C1CCOCC1` [Example 21], the IC50 in test [1] was determined as 48 nM; in test [2], 626 nM; in test [3] it was 175 nM; in test [4], 237 nM.

The term IC50 denotes the concentration at which inhibition is half-maximal. Higher therefore signals weaker potency.
